Reference: PMC5653438 (Molecular microbiology, 2017)
Where a name gives a salt, the structure may show the parent alone.

Assays:
malaria parasite = conditions: treatment with lipoate analogs; ref Allary et al., 2007; Afanador et al., 2014; cited from earlier work
PfLipL1 [1] = molecular target: T1, PfLipL1 (Plasmodium falciparum, UniProt Q8IEG9); assay: biochemical; format: binding; conditions: KD TSA, Kd calculated at 37 °C
PfLipL1 [2] = molecular target: T1, PfLipL1; assay: biochemical; format: binding; conditions: KD ITC
[3] = ref Lukesh et al., 2012; cited from earlier work
[4] = non-reducing conditions (no reducing agent)
[5] = reducing conditions, + TCEP (5 mM)

T1 sequence (Q8IEG9 19-408): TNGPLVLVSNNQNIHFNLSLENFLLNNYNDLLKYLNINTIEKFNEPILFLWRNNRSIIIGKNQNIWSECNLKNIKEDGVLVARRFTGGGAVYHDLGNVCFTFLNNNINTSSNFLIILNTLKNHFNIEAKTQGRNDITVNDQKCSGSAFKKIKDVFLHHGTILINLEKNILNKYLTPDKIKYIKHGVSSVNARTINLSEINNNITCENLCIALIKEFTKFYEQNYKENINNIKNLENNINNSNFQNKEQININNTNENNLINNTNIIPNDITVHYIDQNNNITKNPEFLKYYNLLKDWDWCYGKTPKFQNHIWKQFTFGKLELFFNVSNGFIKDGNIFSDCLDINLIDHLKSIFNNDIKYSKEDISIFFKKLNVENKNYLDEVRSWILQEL

SMILES	Kd (PfLipL1 [1]; [4]) [nM]	Kd (PfLipL1 [1]; [5]) [nM]	further results
O=C(O)CCCCCCCBr [8-BrO, 8-bromooctanoate]	–	–	parasite cell growth inhibition (malaria parasite): causes parasite cell growth inhibition
O=C(O)CCCCC(Cl)CCCl (stereo not shown) [6,8-diClO, 6,8-dichlorooctanoate]	13000 ± 4000	18000 ± 1000	parasite cell growth inhibition (malaria parasite): causes parasite cell growth inhibition
Nc1ncnc2c1ncn2[C@@H]1O[C@H](COP(=O)(O)OC(=O)CCCC[C@@H](S)CCS)[C@@H](O)[C@H]1O [Lipoyl-AMP + TCEP, dihydrolipoyl-AMP]	–	5800 ± 400	–
O=C(O)CCCC[C@@H](S)CCS (racemic) [Lipoate + TCEP, dihydrolipoate]	–	94000 ± 30000	–
Nc1ncnc2c1ncn2[C@@H]1O[C@H](COP(=O)(O)OC(=O)CCCC[C@@H]2CCSS2)[C@@H](O)[C@H]1O [Lipoyl-AMP, (R)-5-(1,2-dithiolan-3-yl)pentanoic (((2R,3S,4R,5R)-5-(6-amino-9H-purin-9-yl)-3,4-dihydroxytetrahydrofuran-2-yl)methylphosphoric) anhydride monosodium salt]	20 ± 5	–	Kd (PfLipL1 [2]; non-reducing conditions): 65 ± 5 nM
Nc1ncnc2c1ncn2[C@@H]1O[C@H](COP(=O)(O)OC(=O)CCCCC(Cl)CCCl)[C@@H](O)[C@H]1O (stereo partly drawn) [6,8-diClO-AMP, 6,8-dichlorooctanoic (((2R,3S,4R,5R)-5-(6-amino-9H-purin-9-yl)-3,4-dihydroxytetrahydrofuran-2-yl)methylphosphoric) anhydride monosodium salt]	90 ± 30	250 ± 20	Kd (PfLipL1 [2]; non-reducing conditions): 100 ± 30 nM; Kd (PfLipL1 [2]; reducing conditions, + TCEP): 500 ± 200 nM
O[C@@H](CS)[C@@H](O)CS (racemic) [DTT, dithiothreitol]	–	–	pKa [3]: 9.3
